Here are results for ten molecules from patent US6248754A, “Substituted isoquinoline derivatives and their use as anticonvulsants” (SmithKline Beecham, p.l.c., priority 1997, dated 2001).

Experiment [1] relates to maximal (tonic hindlimb extension) electroshock seizures in male rats. The experiment can be described thus: Maximal electroshock seizure (MEST) threshold test, rat model. It counts as in vivo. The conditions noted are these: 2 mg/kg p.o. at 2 h, suspended in 1% methyl cellulose, statistically significant. On the procedure:
The maximal electroshock seizure (MEST) threshold test in rodents is particularly sensitive for detecting potential anticonvulsant properties^1. In this model, anticonvulsant agents elevate the threshold to electrically-induced seizures whilst proconvulsants lower the seizure threshold.
The threshold for maximal (tonic hindlimb extension) electroshock seizures in male rats (Sprague Dawley, 80-150 g, 6 weeks old) was determined by a Hugo Sachs Electronik stimulator which delivered a constant current (0.3 sec duration; from 1-300 mA in steps of 5-20 mA). The procedure is similar to that outlined above for mouse and full details are as published by Upton et al,.^4
The percentage increase or decrease in CC50 for each group compared to the control is calculated.
Drugs are suspended in 1% methyl cellulose.

The target in experiment [2] is novel receptor obtainable from rat forebrain tissue. Description: Radioligand binding assay, displacement of [3H]-Compound A. The conditions noted are these: competition with 20 nM [3H]-Compound A, room temperature 1 hour. Here is the method: The affinity of test compounds to the novel receptor site is assessed as follows. Whole forebrain tissue is obtained from rats. The tissue is first homogenised in buffer (usually 50 mM Tris/HCl, pH 7.4). The homogenised tissue is washed by centrifugation and resuspension in the same buffer, then stored at -70° C. until used. To carry out the radioligand binding assay, aliquots of tissue prepared as above (usually at a concentration of 1-2 mg protein/ml) are mixed with aliquots of [3H]-Compound A dissolved in buffer. The final concentration of [3H]-Compound A in the mixture is usually 20 nM. The mixture is incubated at room temperature for 1 hour. [3H]-Compound A bound to the tissue is then separated from unbound [3H]-Compound A by filtration through Whatman GF/B glass fibre filters. The filters are then washed rapidly with ice-cold buffer. The amount of radioactivity bound to the tissue trapped on the filters is measured by addition of liquid scintillation cocktail to the filters followed by counting in a liquid scintillation counter. In order to determine the amount of "specific" binding of [3H]-Compound A, parallel assays are carried out as above in which [3H]-Compound A and tissue are incubated together in the presence of unlabelled Compound A (usually 3 μM). The amount of binding of [3H]-Compound A remaining in the presence of this unlabelled compound is defined as "non-specific" binding. This amount is subtracted from the total amount of [3H]-Compound A binding (i.e. that present in the absence of unlabelled compound) to obtain the amount of "specific" binding of [3H]-Compound A to the novel site. The affinity of the binding of test compounds to the novel site can be estimated by incubating together [3H]-Compound A and tissue in the presence of a range of concentrations of the compound to be tested. The decrease in the level of specific [3H]-Compound A binding as a result of competition by increasing concentrations of the compound under test is plotted graphically, and non-linear regression analysis of the resultant curve is used to provide an estimate of compound affinity in terms of pKi value.
(Loss of bound radioactivity is the signal in a displacement assay; it reports binding, not function.)

For `COc1ccc(C(=O)Nc2ccc3c(c2Br)CN(C)CC3)cc1C(F)(F)F` [Example 9, N-(8-Bromo-2-methyl-1,2,3,4-tetrahydroisoquinolin-7-yl)-4-methoxy-3-trifluoromethylbenzamide], the “increase in CC50 compared to control” value in experiment [1] turned out to be 340%. `CCOc1ccc(C(=O)Nc2ccc3c(c2Cl)CN(C)CC3)cc1Br` [Example 3, N-(8-chloro-2-methyl-1,2,3,4-tetrahydroisoquinolin-7-yl)-3-bromo-4-ethoxybenzamide]: the pKi result in experiment [2] was “greater than 7”. Also, the “increase in CC50 compared to control” value in experiment [1] amounted to 160%.

Consider `CCc1c(NC(=O)c2ccc(OC)c(C(F)(F)F)c2)ccc2c1CNCC2` [Example 14, N-(8-Ethyl-1,2,3,4-tetrahydroisoquinolin-7-yl)-4-methoxy-3-trifluoromethylbenzamide], for which the pKi result in experiment [2] was “greater than 7”. Still for that read-out and setting: as for `CCc1c(NC(=O)c2ccc(OC)c(C(F)(F)F)c2)ccc2c1CN(C)CC2` [Example 15, N-(8-Ethyl-2-methyl-1,2,3,4-tetrahydroisoquinolin-7-yl)-4-methoxy-3-trifluoromethylbenzamide], the entry is “greater than 7”. Take `COc1ccc(C(=O)Nc2ccc3c(c2Cl)CN(C)CC3)cc1C(F)(F)F` [Example 6, N-(8-Chloro-2-methyl-1,2,3,4-tetrahydroisoquinolin-7-yl)-4-methoxy-3-trifluoromethylbenzamide]: in experiment [1], the “increase in CC50 compared to control” value is listed as 260%.

For the molecule `COc1ccc(C(=O)Nc2ccc3c(c2Br)CNCC3)cc1C(F)(F)F` [Example 8, N-(8-Bromo-1,2,3,4-tetrahydroisoquinolin-7-yl)-4-methoxy-3-trifluoromethylbenzamide], the “increase in CC50 compared to control” value in experiment [1] turned out to be 400%. As for `COc1ccc(C(=O)Nc2ccc3c(c2C=Cc2ccccc2)CN(C)CC3)cc1C(F)(F)F.Cl` [Example 19, N-(8-Styryl-2-methyl-1,2,3,4-tetrahydroisoquinolin-7-yl)-4-methoxy-3-trifluoromethylbenzamide hydrochloride], in experiment [2], the pKi result is listed as “greater than 7”.

`COc1ccc(C(=O)Nc2ccc3c(c2C=Cc2ccccc2)CNCC3)cc1C(F)(F)F` [Example 18, N-(8-Styryl-1,2,3,4-tetrahydroisoquinolin-7-yl)-4-methoxy-3-trifluoromethylbenzamide]: the pKi entry in experiment [2] is “greater than 7”.

Take `COc1ccc(C(=O)Nc2ccc3c(c2Cl)CNCC3)cc1C(F)(F)F` [Example 5]: in experiment [2], the pKi result was “greater than 7”. Further, the “increase in CC50 compared to control” value in experiment [1] is on record as 320%. Turning to `CCOc1ccc(C(=O)Nc2ccc3c(c2Cl)CNCC3)cc1Br` [Example 2, N-(8-Chloro-1,2,3,4-tetrahydroisoquinolin-7-yl)-3-bromo-4-ethoxybenzamide], the pKi entry in experiment [2] was “greater than 7”. Also, in experiment [1], the “increase in CC50 compared to control” value came to 120%.
